Assay results: patent US20260184663A1, “INDENE COMPOUNDS, PHARMACEUTICAL COMPOSITIONS THEREOF, AND THEIR THERAPEUTIC APPLICATIONS” (NucMito Pharmaceuticals co. Ltd., priority 2022, published 2026)
Where two headings read alike, the source gives them in different places.

Columns and labels:
Type in all cases: cell-based
[1] = tested on: A431 (epidermoid carcinoma); assay: Antiproliferative activity (CCK-8 cell viability), A431; conditions: Homo sapiens, 72 h, read-out: Antiproliferative activity in cancerous cells, A431 (inhibition of cell growth); for inhibition at 3.3 µM: A-431, Compound concentration: 3.3 μM; for inhibition at 10 µM: A-431, Compound concentration: 10 μM
Summary of the method: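 Cell viability of compound-treated A431 cells was measured with a Cell Counting Kit-8. Each well received 10 μL of CCK-8 after 72 h of compound exposure, followed by 4 h incubation at 37° C. and a 450 nm plate-reader measurement. Percent viability was calculated relative to DMSO controls across replicates.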

[2] = tested on: B16F10 (malignant melanoma); assay: Antiproliferative activity (CCK-8 cell viability), B16F10; conditions: Mus musculus, 72 h, read-out: Antiproliferative activity in cancerous cells, B16F10 (inhibition of cell growth); for inhibition at 3.3 µM: B16-F10, Compound concentration: 3.3 μM; for inhibition at 10 µM: B16-F10, Compound concentration: 10 μM
Summary of the method: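 Attached B16F10 cells in 96-well plates were incubated with compound at 37° C for 72 h, followed by 10 μL CCK-8 reagent per well and a further 4 h incubation. A multi-well plate reader measured absorbance at 450 nm. Percent viability across replicates was calculated against DMSO vehicle-treated cells.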

SW480 (colon cancer) = assay: Antiproliferative activity (CCK-8 cell viability), SW480; conditions: Homo sapiens, 72 h; for inhibition at 3.3 µM: Compound concentration: 3.3 μM; for inhibition at 10 µM: Compound concentration: 10 μM; for inhibition at 30 µM: Compound concentration: 30 μM
Summary of the method: (§1)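 Cells were seeded at 2,000-5,000/well (HeLa in MEM, HepG2 and SW480 in DMEM, A549 in F-12K, all with 10% FBS) and treated with compound at 3.3, 10 or 30 μM for 72 h at 37° C. CCK-8 was added for 4 h, absorbance was read at 450 nm, and viability was expressed relative to DMSO-treated wells.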

HeLa (cervical cancer) = assay: Antiproliferative activity (CCK-8 cell viability), HeLa; conditions: Homo sapiens, 72 h, read-out: Antiproliferative activity in cancerous cells, HELA (inhibition of cell growth); for inhibition at 3.3 µM: Compound concentration: 3.3 μM; for inhibition at 10 µM: Compound concentration: 10 μM
Summary of the method: as §1

[3] = tested on: A549 (lung adenocarcinoma); assay: Antiproliferative activity (CCK-8 cell viability), A549; conditions: Homo sapiens, 72 h, read-out: Antiproliferative activity in cancerous cells, A549 (inhibition of cell growth); for inhibition at 3.3 µM: Compound concentration: 3.3 μM; for inhibition at 10 µM: Compound concentration: 10 μM
Summary of the method: as §1

[4] = tested on: MDA-MB-231 (breast cancer); assay: Antiproliferative activity (CCK-8 cell viability), MDA-MB-231; conditions: Homo sapiens, 72 h; for inhibition at 3.3 µM: Compound concentration: 3.3 μM; for inhibition at 10 µM: Compound concentration: 10 μM; for inhibition at 30 µM: Compound concentration: 30 μM
Summary of the method: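 In this CCK-8 viability assay, MDA-MB-231 cells maintained in Dulbecco's modified Eagle's medium containing 10% fetal bovine serum were placed in 96-well plates (2,000-5,000 cells/well) and treated with compound for 72 h at 37° C. A 4 h incubation with 10 μL CCK-8 followed, plates were read at 450 nm, and viability was expressed against DMSO vehicle wells across replicates.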

HepG2 (liver cancer) = assay: Antiproliferative activity (CCK-8 cell viability), HepG2; conditions: Homo sapiens, 72 h, read-out: Antiproliferative activity in cancerous cells, HepG2 (inhibition of cell growth); for inhibition at 3.3 µM: Compound concentration: 3.3 μM; for inhibition at 10 µM: Compound concentration: 10 μM
Summary of the method: as §1

[5] = read-out: Antiproliferative activity in cancerous cells, SW480 (inhibition of cell growth)
[6] = read-out: Antiproliferative activity in cancerous cells, MDA-MB-231 (inhibition of cell growth)
[7] = read-out: Antiproliferative activity in cancerous cells, MDA-MB-231

Compound | inhibition at 3.3 µM [1] [%] | inhibition at 10 µM [1] [%] | inhibition at 3.3 µM [2] [%] | inhibition at 10 µM [2] [%] | inhibition at 3.3 µM (SW480 (colon cancer); [5]) [%] | inhibition at 10 µM (SW480 (colon cancer); [5]) [%] | inhibition at 3.3 µM (HeLa (cervical cancer)) [%] | inhibition at 10 µM (HeLa (cervical cancer)) [%] | inhibition at 3.3 µM [3] [%] | inhibition at 10 µM [3] [%] | inhibition at 3.3 µM [4, 6] [%] | inhibition at 10 µM [4, 6] [%] | inhibition at 3.3 µM (HepG2 (liver cancer)) [%] | inhibition at 10 µM (HepG2 (liver cancer)) [%] | inhibition at 30 µM [4, 7] [%] | also measured
COc1ccc2c(c1)C(CC(=O)O)=C(C)/C2=C/c1ccc(Oc2ccc(Cl)cc2)cc1C [C74, (Z)-2-(1-(4-(4-Chlorophenoxy)-2-methylbenzylidene)-5-methoxy-2-methyl-1H-inden-3-yl)acetic acid] | ≥ 50 | ≥ 50 | ≥ 50 | ≥ 50 | < 30 | 30 to 50 | < 30 | ≥ 50 | 30 to 50 | ≥ 50 | ≥ 50 | ≥ 50 | < 30 | ≥ 50 | – | –
CC1=C(CC(=O)O)c2cc(F)ccc2/C1=C\c1ccc(COCc2ccc(F)c(Cl)c2)cc1 [B106, (Z)-2-(1-(4-(((3-Chloro-4-fluorobenzyl)oxy)methyl)benzylidene)-5-fluoro-2-methyl-1H-inden-3-yl)acetic acid] | 30 to 50 | ≥ 50 | < 30 | ≥ 50 | ≥ 50 | ≥ 50 | ≥ 50 | ≥ 50 | 30 to 50 | ≥ 50 | ≥ 50 | ≥ 50 | < 30 | ≥ 50 | – | –
CC1=C(CC(=O)O)c2cc(C)ccc2/C1=C\c1ccc(CCc2ccccc2)cc1 [B147, (Z)-2-(2,5-Dimethyl-1-(4-phenethylbenzylidene)-1H-inden-3-yl)acetic acid] | ≥ 50 | ≥ 50 | < 30 | ≥ 50 | < 30 | ≥ 50 | < 30 | ≥ 50 | < 30 | ≥ 50 | < 30 | < 30 | < 30 | ≥ 50 | 30 to 50 | –
CC1=C(CC(=O)O)c2cc(F)ccc2/C1=C\c1ccc(Sc2ccc(F)cc2)cc1 [C47, (Z)-2-(5-Fluoro-1-(4-((4-fluorophenyl)thio)benzylidene)-2-methyl-1H-inden-3-yl)acetic acid] | 30 to 50 | ≥ 50 | < 30 | ≥ 50 | < 30 | ≥ 50 | < 30 | ≥ 50 | < 30 | ≥ 50 | < 30 | < 30 | < 30 | ≥ 50 | < 30 | –
CC1=C(CC(=O)O)c2c(Cl)cc(Cl)cc2/C1=C\c1ccc(Oc2ccc(F)cc2)cc1 [C87, (Z)-2-(4,6-Dichloro-1-(4-(4-fluorophenoxy)benzylidene)-2-methyl-1H-inden-3-yl)acetic acid] | ≥ 50 | ≥ 50 | ≥ 50 | ≥ 50 | < 30 | ≥ 50 | < 30 | ≥ 50 | < 30 | ≥ 50 | ≥ 50 | ≥ 50 | < 30 | ≥ 50 | – | –
CC1=C(CC(=O)O)c2cc(F)ccc2/C1=C\c1ccc(CCOc2ccccc2)cc1 [B32, (Z)-2-(5-Fluoro-2-methyl-1-(4-(2-phenoxyethyl)benzylidene)-1H-inden-3-yl)acetic acid] | 30 to 50 | ≥ 50 | 30 to 50 | ≥ 50 | 30 to 50 | 30 to 50 | < 30 | ≥ 50 | 30 to 50 | ≥ 50 | < 30 | < 30 | < 30 | ≥ 50 | – | –
CC1=C(CC(=O)O)c2cc(F)ccc2/C1=C\c1ccc(Oc2ccc(Cl)cc2F)cc1 [C52, (Z)-2-(1-(4-(4-Chloro-2-fluorophenoxy)benzylidene)-5-fluoro-2-methyl-1H-inden-3-yl)acetic acid] | ≥ 50 | ≥ 50 | ≥ 50 | ≥ 50 | < 30 | ≥ 50 | 30 to 50 | ≥ 50 | 30 to 50 | ≥ 50 | 30 to 50 | ≥ 50 | < 30 | ≥ 50 | – | –
COc1ccc(Oc2ccc(/C=C3/C(C)=C(CC(=O)O)c4cc(F)ccc43)cc2)cc1Cl [C70, (Z)-2-(1-(4-(3-Chloro-4-methoxyphenoxy)benzylidene)-5-fluoro-2-methyl-1H-inden-3-yl)acetic acid] | ≥ 50 | ≥ 50 | < 30 | 30 to 50 | < 30 | < 30 | < 30 | ≥ 50 | < 30 | 30 to 50 | < 30 | < 30 | < 30 | ≥ 50 | 30 to 50 | inhibition at 30 µM (SW480 (colon cancer); read-out: Antiproliferative activity in cancerous cells, SW480): < 30%
COc1ccc(S(=O)(=O)Cc2ccc(/C=C3\C(C)=C(CC(=O)O)c4cc(F)ccc43)cc2)cc1 [E20, (E)-2-(5-Fluoro-1-(4-(((4-methoxyphenyl)sulfonyl)methyl)benzylidene)-2-methyl-1H-inden-3-yl)acetic acid] | 30 to 50 | ≥ 50 | < 30 | 30 to 50 | 30 to 50 | 30 to 50 | < 30 | ≥ 50 | < 30 | 30 to 50 | < 30 | 30 to 50 | 30 to 50 | ≥ 50 | – | inhibition at 30 µM ([1]; A-431, Compound concentration: 30 μM): ≥ 50%; inhibition at 30 µM ([2]; B16-F10, Compound concentration: 30 μM): ≥ 50%; inhibition at 30 µM (SW480 (colon cancer); [5]): ≥ 50%; inhibition at 30 µM (HeLa (cervical cancer); Compound concentration: 30 μM): ≥ 50%; inhibition at 30 µM ([3]; Compound concentration: 30 μM): ≥ 50%; inhibition at 30 µM [4, 6]: ≥ 50%; inhibition at 30 µM (HepG2 (liver cancer); Compound concentration: 30 μM): ≥ 50%
